The record followed here is patent publication US11485731B2, “Compounds and methods useful in the treatment of a PRMT5-mediated disorder” (ARGONAUT THERAPEUTICS LIMITED, priority 2017, dated 2022).

pIC50: −log10 of the molar value.

A word on the pIC50: it is the negative decadic logarithm of the IC50, by convention in mol/L. The low end stands for a high IC50, the high end for a low IC50.

The target in the assay is human PRMT5/MEP50 (Homo sapiens (Human), UniProt O14744). The assay can be described thus: PRMT5 chemiluminescent assay. The settings on record: human PRMT5/MEP50 expressed in HEK293 cells; biotinylated histone peptides; Histone H4 monomethyl R3 antibody; chemiluminescent readout. The assay is classed as biochemical. The protocol: A PRMT5 chemiluminescent assay was used to measure the IC50 activity of PRMT5 of the compounds of Examples 1A to 7 above. Biotinylated histone peptides were synthesized and attached to 384-well plates. Compound serial dilutions were performed and added to the assay plate. Histone H4 monomethyl R3 antibody was obtained from Abcam. A master mix for each well was prepared and human PRMT5/MEP50 (expressed in HEK293 cells) diluted in assay buffer to a concentration of 5 ng/μL. The reaction was incubated and slowly rotated for 60 minutes at the point of PRMT5/MEP50 addition. The supernatant from the wells was removed and blocking buffer was added to each well and rotated for 10 minutes. The primary antibody was diluted and added to every well for 60 minutes, before it was removed and the wells washed. The horse raddish peroxidase (HRP)-coupled secondary antibody was diluted and added to each well with an incubation time of 30 minutes. The HRP chemiluminescent substrate was added to every well. The plate was read on a Flourstar Omega BMG Labtech instrument (Ortenberg, Germany) and the analysis of IC50 was performed using the Flourstar Omega BMG Labtech software.
Chain of human PRMT5/MEP50 (O14744 whole entry): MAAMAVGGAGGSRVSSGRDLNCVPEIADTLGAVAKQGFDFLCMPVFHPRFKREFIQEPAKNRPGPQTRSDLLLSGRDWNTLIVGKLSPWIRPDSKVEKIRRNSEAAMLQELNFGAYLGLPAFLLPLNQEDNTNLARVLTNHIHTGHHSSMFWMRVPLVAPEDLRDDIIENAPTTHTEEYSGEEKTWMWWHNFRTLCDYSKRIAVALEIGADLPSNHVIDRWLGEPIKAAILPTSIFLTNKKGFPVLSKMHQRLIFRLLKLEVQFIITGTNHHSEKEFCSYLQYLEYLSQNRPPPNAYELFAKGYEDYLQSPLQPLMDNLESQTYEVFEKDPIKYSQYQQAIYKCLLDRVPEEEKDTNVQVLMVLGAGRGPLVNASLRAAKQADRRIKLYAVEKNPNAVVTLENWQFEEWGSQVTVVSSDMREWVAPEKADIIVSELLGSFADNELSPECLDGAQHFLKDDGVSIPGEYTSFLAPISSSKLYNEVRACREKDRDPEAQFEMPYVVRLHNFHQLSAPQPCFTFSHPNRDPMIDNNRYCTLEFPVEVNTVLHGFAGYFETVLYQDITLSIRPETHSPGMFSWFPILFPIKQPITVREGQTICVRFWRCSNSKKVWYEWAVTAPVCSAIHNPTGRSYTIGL
Chain of human PRMT5/MEP50 (Q9BQA1 whole entry partner): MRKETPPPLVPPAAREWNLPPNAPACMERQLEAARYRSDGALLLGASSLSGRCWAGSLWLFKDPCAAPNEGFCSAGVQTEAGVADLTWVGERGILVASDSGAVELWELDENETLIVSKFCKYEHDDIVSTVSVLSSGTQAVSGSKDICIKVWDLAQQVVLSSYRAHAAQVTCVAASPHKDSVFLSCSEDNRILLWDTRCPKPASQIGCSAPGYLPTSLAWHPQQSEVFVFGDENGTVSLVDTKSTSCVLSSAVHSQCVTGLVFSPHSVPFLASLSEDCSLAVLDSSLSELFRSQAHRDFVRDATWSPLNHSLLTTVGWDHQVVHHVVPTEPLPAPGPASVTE
Compound `O=C(NC[C@H](O)CN1CCc2ccccc2C1)N1CCC[C@H](c2ccccc2)C1` [Example 1AO, (R)-N-((S)-3-(3,4-dihydroisoquinolin-2(1H)-yl)-2-hydroxypropyl)-3-phenylpiperidine-1-carboxamide] showed a pIC50 of 8.05.
The value for `CC(=O)N1CCCN(C(=O)NC[C@H](O)CN2CCc3ccccc3C2)CC1` [Example 1AP, (S)-4-acetyl-N-(3-(3,4-dihydroisoquinolin-2(1H)-yl)-2-hydroxypropyl)-1,4-diazepane-1-carboxamide] was 6.32; that for `CS(=O)(=O)N1CCCN(C(=O)NC[C@H](O)CN2CCc3ccccc3C2)CC1` [Example 1AQ, (S)-N-(3-(3,4-dihydroisoquinolin-2(1H)-yl)-2-hydroxypropyl)-4-(methylsulfonyl)-1,4-diazepane-1-carboxamide] was 7.11.
Consider `O=C(NC[C@H](O)CN1CCc2ccccc2C1)N1CCCN(C(=O)c2ccccc2)CC1` [Example 1AR, (S)-4-benzoyl-N-(3-(3,4-dihydroisoquinolin-2(1H)-yl)-2-hydroxypropyl)-1,4-diazepane-1-carboxamide], for which the pIC50 was 6.18.
With `COC(=O)N1CCCN(C(=O)NC[C@H](O)CN2CCc3ccccc3C2)CC1` [Example 1AS, Methyl (S)-4-((3-(3,4-dihydroisoquinolin-2(1H)-yl)-2-hydroxypropyl)carbamoyl)-1,4-diazepane-1-carboxylate] the figure was 6.95; with `O=C(NC[C@H](O)CN1CCc2ccccc2C1)N1CCCSCC1` [Example 1AT, (S)-N-(3-(3,4-dihydroisoquinolin-2(1H)-yl)-2-hydroxypropyl)-1,4-thiazepane-4-carboxamide], 6.16.
With `O=C(NC[C@H](O)CN1CCc2ccccc2C1)N1CCC[S+]([O-])CC1` (stereo partly drawn) [Example 1AU, N-((S)-3-(3,4-dihydroisoquinolin-2(1H)-yl)-2-hydroxypropyl)-1,4-thiazepane-4-carboxamide 1-oxide] the figure was 4.51.
The value for `O=C(NC[C@H](O)CN1CCc2ccccc2C1)N1CCCS(=O)(=O)CC1` [Example 1AV, (S)-N-(3-(3,4-dihydroisoquinolin-2(1H)-yl)-2-hydroxypropyl)-1,4-thiazepane-4-carboxamide 1,1-dioxide] was 5.50; that for `O=C(NC[C@H](O)CN1CCc2ccccc2C1)N1CCCN(C(=O)c2cccs2)CC1` [Example 1AW, (S)-N-(3-(3,4-dihydroisoquinolin-2(1H)-yl)-2-hydroxypropyl)-4-(thiophene-2-carbonyl)-1,4-diazepane-1-carboxamide] was 5.15; that for `CN(C)C(=O)C1CCN(C(=O)NC[C@H](O)CN2CCc3ccccc3C2)CC1` [Example 1AX, (S)-N^1-(3-(3,4-dihydroisoquinolin-2(1H)-yl)-2-hydroxypropyl)-N^4,N^4-dimethylpiperidine-1,4-dicarboxamide] was 6.23.
With `O=C(NC[C@H](O)CN1CCc2ccccc2C1)N1CCC(C(=O)N2CCOCC2)CC1` [Example 1AY, (S)-N-(3-(3,4-dihydroisoquinolin-2(1H)-yl)-2-hydroxypropyl)-4-(morpholine-4-carbonyl)piperidine-1-carboxamide], the pIC50 is 6.51.
With `O=C(NC[C@H](O)CN1CCc2ccccc2C1)N1CCC(C(=O)N2C3CCC2COC3)CC1` [Example 1AZ, 4-(3-oxa-8-azabicyclo[3.2.1]octane-8-carbonyl)-N-((S)-3-(3,4-dihydroisoquinolin-2(1H)-yl)-2-hydroxypropyl)piperidine-1-carboxamide] the figure was 6.80; with `O=C(NCC(O)CN1CCc2ccsc2C1)N1CCC(c2ccccc2)C1` (centres unmarked) [Example 1Af, N-(3-(4,7-dihydrothieno[2,3-c]pyridin-6(5H)-yl)-2-hydroxypropyl)-3-phenylpyrrolidine-1-carboxamide], 6.13; with `CC(=O)N1CCN(C(=O)NCC(O)CN2CCc3ccccc3C2)CC1` (centres unmarked) [Example 1B, 4-acetyl-N-[2-hydroxy-3-(1,2,3,4-tetrahydroisoquinolin-2-yl)propyl]piperazine-1-carboxamide], 5.00.
The value for `O=C(NC[C@H](O)CN1CCc2ccccc2C1)N1CCC(c2ccccn2)C1` (stereo partly drawn) [Example 1BA, N-((S)-3-(3,4-dihydroisoquinolin-2(1H)-yl)-2-hydroxypropyl)-3-(pyridin-2-yl)pyrrolidine-1-carboxamide] was 7.01.
With `CC(=O)N1CCCN(C(=O)NC[C@@H](O)CN2CCc3ccccc3C2)CC1` [Example 1BB, (R)-4-acetyl-N-(3-(3,4-dihydroisoquinolin-2(1H)-yl)-2-hydroxypropyl)-1,4-diazepane-1-carboxamide] the figure was 4.29; with `COC(=O)N1CCCN(C(=O)NC[C@@H](O)CN2CCc3ccccc3C2)CC1` [Example 1BC, Methyl (R)-4-((3-(3,4-dihydroisoquinolin-2(1H)-yl)-2-hydroxypropyl)carbamoyl)-1,4-diazepane-1-carboxylate], 4.48; with `CS(=O)(=O)N1CCCN(C(=O)NC[C@@H](O)CN2CCc3ccccc3C2)CC1` [Example 1BD, (R)-N-(3-(3,4-dihydroisoquinolin-2(1H)-yl)-2-hydroxypropyl)-4-(methylsulfonyl)-1,4-diazepane-1-carboxamide], 4.24.
Consider `O=C(NC[C@@H](O)CN1CCc2ccccc2C1)N1CCC(C(=O)N2C3CCC2COC3)CC1` [Example 1BE, 4-(3-oxa-8-azabicyclo[3.2.1]octane-8-carbonyl)-N-((R)-3-(3,4-dihydroisoquinolin-2(1H)-yl)-2-hydroxypropyl)piperidine-1-carboxamide], for which the pIC50 was 5.51.
With `O=C(NC[C@H](O)CN1CCc2ccccc2C1)N1CCC(F)(F)CC1` [Example 1BF, (S)-N-(3-(3,4-dihydroisoquinolin-2(1H)-yl)-2-hydroxypropyl)-4,4-difluoropiperidine-1-carboxamide] the figure was 5.25; with `CC1(O)CCN(C(=O)NC[C@H](O)CN2CCc3ccccc3C2)CC1` [Example 1BG, (S)-N-(3-(3,4-dihydroisoquinolin-2(1H)-yl)-2-hydroxypropyl)-4-hydroxy-4-methylpiperidine-1-carboxamide], 5.40; with `O=C(NC[C@H](O)CN1CCc2ccccc2C1)N1CCCC(O)(c2ccccc2)C1` (stereo partly drawn) [Example 1BH, N-((S)-3-(3,4-dihydroisoquinolin-2(1H)-yl)-2-hydroxypropyl)-3-hydroxy-3-phenylpiperidine-1-carboxamide], 6.78.
With `O=C(NC[C@H](O)CN1CCc2ccccc2C1)N1CCC(O)(c2ccccc2)C1` (stereo partly drawn) [Example 1BI, N-((S)-3-(3,4-dihydroisoquinolin-2(1H)-yl)-2-hydroxypropyl)-3-hydroxy-3-phenylpyrrolidine-1-carboxamide] the figure was 6.40; with `O=C(NC[C@H](O)CN1CCc2ccccc2C1)N1CCSC(c2ccccc2)C1` (stereo partly drawn) [Example 1BJ, N-((S)-3-(3,4-dihydroisoquinolin-2(1H)-yl)-2-hydroxypropyl)-2-phenylthiomorpholine-4-carboxamide], 6.97; with `O=C(NC[C@H](O)CN1CCc2ccccc2C1)N1CCCC(n2cccn2)C1` (stereo partly drawn) [Example 1BK, N-((S)-3-(3,4-dihydroisoquinolin-2(1H)-yl)-2-hydroxypropyl)-3-(1H-pyrazol-1-yl)piperidine-1-carboxamide], 6.40.
The value for `O=C(NC[C@H](O)CN1CCc2ccccc2C1)N1CCCC(n2ccnc2)C1` (stereo partly drawn) [Example 1BL, N-((S)-3-(3,4-dihydroisoquinolin-2(1H)-yl)-2-hydroxypropyl)-3-(1H-imidazol-1-yl)piperidine-1-carboxamide] was 5.35; that for `O=C(NC[C@H](O)CN1CCc2ccccc2C1)N1CCCN(S(=O)(=O)c2ccccc2)CC1` [Example 1BM, (S)-N-(3-(3,4-dihydroisoquinolin-2(1H)-yl)-2-hydroxypropyl)-4-(phenylsulfonyl)-1,4-diazepane-1-carboxamide] was 5.89; that for `O=C(NC[C@H](O)CN1CCc2ccccc2C1)N1CCCSC(c2ccccc2)C1` (stereo partly drawn) [Example 1BN, N-((S)-3-(3,4-dihydroisoquinolin-2(1H)-yl)-2-hydroxypropyl)-2-phenyl-1,4-thiazepane-4-carboxamide] was 6.98.
The compound `O=C(NC[C@H](O)CN1CCc2ccccc2C1)N1CCCS(=O)(=O)C(c2ccccc2)C1` (stereo partly drawn) [Example 1BO, N-((S)-3-(3,4-dihydroisoquinolin-2(1H)-yl)-2-hydroxypropyl)-2-phenyl-1,4-thiazepane-4-carboxamide 1,1-dioxide] had a pIC50 of 5.74.
For `O=C(NC[C@H](O)CN1CCc2ccccc2C1)N1CCCOCC1` [Example 1BP, (S)-N-(3-(3,4-dihydroisoquinolin-2(1H)-yl)-2-hydroxypropyl)-1,4-oxazepane-4-carboxamide], the pIC50 was 5.14.
With `O=C(NC[C@H](O)CN1CCc2ccccc2C1)N1CCCC(c2ccccn2)C1` (stereo partly drawn) [Example 1BQ, N-((S)-3-(3,4-dihydroisoquinolin-2(1H)-yl)-2-hydroxypropyl)-3-(pyridin-2-yl)piperidine-1-carboxamide] the figure was 7.32; with `Cn1cc(C2CCCN(C(=O)NC[C@H](O)CN3CCc4ccccc4C3)C2)ccc1=O` (stereo partly drawn) [Example 1BR, N-((S)-3-(3,4-dihydroisoquinolin-2(1H)-yl)-2-hydroxypropyl)-3-(1-methyl-6-oxo-1,6-dihydropyridin-3-yl)piperidine-1-carboxamide], 6.31.
